According to patent US20040248765A1, “Tumour targeting prodrugs activated by metallo matrixproteinases” (priority 2001, published 2004):
Where two headings read alike, the source gives them in different places. Where a SMILES comes first, the peptide text is derived from it. [ ]: non-standard residue; d: D form. The star is where a group is joined. NH(CH2)3NH(1-anthraquinonyl) = O=C1c2ccccc2C(=O)c2c(NCCCN*)cccc21

Key:
[1] = test system: MAC15A adenocarcinoma of the colon; assay: In vitro cytotoxicity against MAC15A adenocarcinoma of the colon, 96 hours exposure; format: cell-based
MAC15A = assay: In vitro cytotoxicity, MAC15A, 1 hour exposure; format: cell-based; conditions: for % cells remaining: 1 × 10^4 cells/ml
topo I = molecular target: T1, topo I (Homo sapiens, UniProt P11387); assay: Inhibition of topo I-mediated relaxation of pBR322 DNA; format: biochemical; conditions: for LEVEL OF INHIBITION of topo I-mediated relaxation pBR322 DNA: tested between 1-100 μM
T1 sequence (P11387 1-765): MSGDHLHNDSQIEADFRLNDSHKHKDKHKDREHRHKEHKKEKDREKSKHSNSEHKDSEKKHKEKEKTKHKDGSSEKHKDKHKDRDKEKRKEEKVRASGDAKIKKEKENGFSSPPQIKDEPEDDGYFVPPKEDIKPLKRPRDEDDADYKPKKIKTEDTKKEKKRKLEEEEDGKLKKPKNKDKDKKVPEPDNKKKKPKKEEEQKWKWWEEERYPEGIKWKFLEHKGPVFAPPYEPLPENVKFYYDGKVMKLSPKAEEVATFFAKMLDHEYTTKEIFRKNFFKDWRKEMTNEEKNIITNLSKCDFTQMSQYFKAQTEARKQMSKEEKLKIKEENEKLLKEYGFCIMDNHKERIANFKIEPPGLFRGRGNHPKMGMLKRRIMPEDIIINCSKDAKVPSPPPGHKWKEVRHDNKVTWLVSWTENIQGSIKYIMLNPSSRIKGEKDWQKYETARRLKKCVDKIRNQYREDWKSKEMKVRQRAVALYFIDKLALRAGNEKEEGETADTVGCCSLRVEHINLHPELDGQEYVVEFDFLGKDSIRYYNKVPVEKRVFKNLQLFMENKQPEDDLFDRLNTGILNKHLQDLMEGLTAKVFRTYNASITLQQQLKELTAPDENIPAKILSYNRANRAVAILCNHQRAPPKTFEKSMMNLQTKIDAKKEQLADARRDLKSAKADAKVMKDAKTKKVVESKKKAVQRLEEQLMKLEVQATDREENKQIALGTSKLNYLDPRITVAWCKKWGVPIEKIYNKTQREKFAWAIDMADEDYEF
Method: Neither example (8) [NU:UB187] (heptapeptide) nor its hexa-, penta-, or tetra-peptide metabolites {examples (7) [NU:UB 205], (6) [NU:UB 204] and (5) [NU:UB 186] respectively} inhibited the topo I- mediated relaxation of pBR322 DNA at concentrations up to 100 μM. […] (the preferred MMP-2 cleavage product of example (8) [NU:UB187] The topo I activities of example (2) [NU:UB 31] and example (1b) [NU:UB 197] bad previously been determined [Table 1].

calf thymus DNA [2] = assay: Fluorescence quenching, Hoechst Dye 33258 displacement from calf thymus DNA; format: binding; conditions: for QH50 (Hoechst Dye 33258 displacement): calf thymus DNA
calf thymus DNA [3] = assay: Fluorescence quenching, Ethidium Bromide displacement from calf thymus DNA; format: binding; conditions: for QE50 (Ethidium Bromide displacement): calf thymus DNA
[4] = In vitro tumour incubations: metabolism by dilute HT1080 tumour homogenate (HPLC); format: in vitro ADME; conditions: dilute HT1080 tumour homogenate (1:500)
Method: Separation was achieved using gradient reversed phase HPLC On a Lichrospher (25×4 mm) column.
Mobile phase A consisted of 10% acetonitrile: 90% TFA (0.05%) and mobile phase B of 60% acetonitrile: 40% TFA (0.05%). Optimum detection was at the λmax of 248 nm using a flow rate of 1.2 ml/min. The gradient profile was from 60% A to 5% A over 25 min.
Sample preparation for HPLC was by simple protein precipitation. 3 vols. of methanol were added to 1 vol. of sample (typically 100 μl) which was centrifuged at 3000 g for 5 min. The supernatant was injected directly onto the HPLC column.
In Vitro Tumour Incubations
Solid tumour (HTT1080—excised from NCI-Nu mice under a Home Office Licence) was homogenised (1:4) in MMP buffer. Tumour homogenates were incubated at 25° C. and compounds (drugs) were added to the homogenate to give a final concentration of 10 μM or 100 μM. Samples were taken at timed intervals and prepared for HPLC analysis as described above.
Where metabolism was so rapid tumour homogenates required dilution (to 1:500) before analysis.

human recombinant MMP-9 = molecular target: T2, human recombinant MMP-9 (Homo sapiens, UniProt P14780); assay: In vitro enzyme incubation with recombinant MMP-9 (HPLC, MS/MS); format: biochemical; conditions: HPLC and MS/MS
T2 construct: purchased Calbiochem (Calbiochem-Novabiochem Ltd, Nottingham, UK)
T2 sequence (P14780 94-707): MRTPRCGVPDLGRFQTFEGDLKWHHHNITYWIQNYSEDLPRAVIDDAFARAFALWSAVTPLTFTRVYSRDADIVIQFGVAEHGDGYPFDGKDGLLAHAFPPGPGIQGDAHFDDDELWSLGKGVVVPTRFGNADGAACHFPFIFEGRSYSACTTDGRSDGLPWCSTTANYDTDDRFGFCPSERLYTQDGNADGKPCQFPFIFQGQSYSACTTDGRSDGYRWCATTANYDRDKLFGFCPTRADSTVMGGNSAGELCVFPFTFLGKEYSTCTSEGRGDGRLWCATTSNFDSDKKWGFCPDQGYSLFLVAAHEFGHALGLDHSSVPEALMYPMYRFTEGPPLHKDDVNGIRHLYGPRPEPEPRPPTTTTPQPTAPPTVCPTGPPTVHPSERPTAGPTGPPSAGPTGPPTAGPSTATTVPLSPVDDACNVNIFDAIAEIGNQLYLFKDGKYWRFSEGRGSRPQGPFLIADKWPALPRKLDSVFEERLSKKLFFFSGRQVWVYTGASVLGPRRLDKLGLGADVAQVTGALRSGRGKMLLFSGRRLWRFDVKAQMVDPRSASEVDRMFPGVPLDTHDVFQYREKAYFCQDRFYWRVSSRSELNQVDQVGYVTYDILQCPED
Method: In vitro Enzyme Incubations
Compounds were incubated in vitro with purified recombinant enzyme (either MMP-9 or MMP-2) (Calbiochem, Nottingham, UK). Typically, compounds (drugs) were incubated at 5 μM concentrations using 10 μl of enzyme, 10μl of drug and 90 μl of buffer at 25° C. The buffer used consisted of 200 mM NaCl, 50 mM Tris, 5 mM CaCl2, 20 μM ZnSO4 and 0.05% Brij35 at pH 7.6.
At various time points 20 μl samples were taken and 60 μl of methanol added to precipitate proteins as described above and the metabolism of the compounds was analysed by HPLC (as above).

[5] = Stability in murine whole blood and mouse plasma; format: in vitro ADME

SMILES	melting point [°C]	% cells remaining (MAC15A; 1 μM) [%]	% cells remaining (MAC15A; 10 μM) [%]	% cells remaining (MAC15A; 100 μM) [%]	IC50 (MAC15A; Mus musculus) [µM]	LEVEL OF INHIBITION of topo I-mediated relaxation pBR322 DNA (topo I)	also measured
CC(C)C[C@H](N)C(=O)N1CCC[C@H]1C(=O)NCCCNc1cccc2c1C(=O)c1ccccc1C2=O.O=C(O)C(F)(F)F [Example 3, 1-[3-(L-Leucyl-L-prolylamino)propylamino]anthraquinone trifluoroacetate]	126	80	58	1	14	Complete inhibition of relaxation at 5 μM	IC50 ([1]; Mus musculus, 96 h): 2 µM
O=C(O)C(F)(F)F.O=C1c2ccccc2C(=O)c2c(NCCCNC(=O)[C@@H]3CCCN3)cccc21 [Example 2, 1-[3-(L-Propylamino)propylamino]anthraquinone trifluoroacetate]		100	30	0		Complete inhibition of relaxation at 25 μM	IC50 ([1]; exposure time 96 hours, read-out: IC50): 4.3 µM; IC50 (MAC15A): 5 µM; QH50 (Hoechst Dye 33258 displacement) (calf thymus DNA [2]): 0.6 µM; QE50 (Ethidium Bromide displacement) (calf thymus DNA [3]): 2 µM
CC(C)C[C@H](NC(=O)[C@H](C)NC(=O)[C@H](C)N)C(=O)NCC(=O)N[C@@H](CC(C)C)C(=O)N1CCC[C@H]1C(=O)NCCCNc1cccc2c1C(=O)c1ccccc1C2=O.O=C(O)C(F)(F)F [Example 7, 1-[3-(L-Alanyl-L-alanyl-L-leucyl-glycyl-L-leucyl-L-prolylamino)-propylamino]anthraquinone trifluoroacetate]	132					No inhibition of relaxation between 1-100 μM	
NCCCNc1cccc2c1C(=O)c1ccccc1C2=O.O=C(O)C(F)(F)F [Example 1b, 1-[(3-Aminopropyl)amino]anthraquinone trifluoroacetate]		90	100	5	33	Complete inhibition of relaxation at 25 μM	
CC(C)C[C@H](NC(=O)[C@H](C)N)C(=O)NCC(=O)N[C@@H](CC(C)C)C(=O)N1CCC[C@H]1C(=O)NCCCNc1cccc2c1C(=O)c1ccccc1C2=O.O=C(O)C(F)(F)F [Example 6, 1-[3-(L-Alanyl-L-leucyl-glycyl-L-leucyl-L-prolylamino)propylamino]-anthraquinone trifluoroacetate]	168					No inhibition of relaxation between 1-100 μM	
CC(C)C[C@H](NC(=O)CN)C(=O)N1CCC[C@H]1C(=O)NCCCNc1cccc2c1C(=O)c1ccccc1C2=O.O=C(O)C(F)(F)F [example (4)]							inhibition of topo I-mediated relaxation, in words (topo I): weakly inhibited relaxation at 50 μM
CC(C)C[C@H](NC(=O)[C@H](C)NC(=O)[C@H](C)NC(=O)[C@@H](C)N)C(=O)NCC(=O)N[C@@H](CC(C)C)C(=O)N1CCC[C@H]1C(=O)NCCCNc1cccc2c1C(=O)c1ccccc1C2=O.O=C(O)C(F)(F)F [Example 8, 1-[3-(D-Alanyl-L-alanyl-L-alanyl-L-leucyl-glycyl-L-leucyl-L-prolylamino)-propylamino]anthraquinone trifluoroacetate] (H-[dA]AALGLP-{NH(CH2)3NH(1-anthraquinonyl)})	166	100	100	95	> 100	No inhibition of relaxation between 1-100 μM	IC50 ([1]; Mus musculus, 96 h): 36 µM; major products / metabolite [4]: the cleavage product Example 4 and the anthraquinone Example 1a; rate of metabolism [4]: 1.75 μmol/min/g tissue; QH50 (Hoechst Dye 33258 displacement) (calf thymus DNA [2]): 4 µM; groove binding to DNA (calf thymus DNA [2]; in comparison to example (2) NU:UB 31): weak groove binding agent; QE50 (Ethidium Bromide displacement) (calf thymus DNA [3]): 17 µM; intercalation into DNA (calf thymus DNA [3]; refers to Table 3): not to intercalate into DNA; cleavage product with MMP-9 (human recombinant MMP-9): cleavage to anthraquinonyl, spacer-linked tripeptide Example 4
CC(C)C[C@H](N)C(=O)N1CCC[C@H]1C(=O)NCCCNc1cccc2c1C(=O)c1ccccc1C2=O.O=C(O)C(F)(F)F [example (3)]							inhibition of topo I-mediated relaxation, in words (topo I): Greatest inhibitory activity
CC(C)C[C@H](NC(=O)[C@H](C)NC(=O)[C@H](C)NC(=O)[C@@H](C)N)C(=O)NCC(=O)N[C@@H](CC(C)C)C(=O)N1CCC[C@@H]1C(=O)NCCCNc1cccc2c1C(=O)c1ccccc1C2=O.O=C(O)C(F)(F)F [example (15)] (H-[dA]AALGL[dP]-{NH(CH2)3NH(1-anthraquinonyl)})							major products / metabolite [4]: the expected cleavage product example (11) [NU:UB 224]; rate of metabolism [4]: 2.5 μmol/min/g tissue
CC(C)C[C@H](NC(=O)[C@H](C)NC(=O)[C@H](C)NC(=O)[C@@H](C)N)C(=O)NCC(=O)N[C@@H](CC(C)C)C(=O)N1CCC[C@H]1C(=O)NCCCNc1cccc2c1C(=O)c1ccccc1C2=O.O=C(O)C(F)(F)F [example (8)] (H-[dA]AALGLP-{NH(CH2)3NH(1-anthraquinonyl)})							t½ ([5]; mouse plasma at 37° C.): > 13 h; half-life ([5]; murine whole blood): 1.46 h
CC(C)C[C@H](NC(=O)CNC(=O)[C@@H](N)CC(C)C)C(=O)N1CCC[C@H]1C(=O)NCCCNc1cccc2c1C(=O)c1ccccc1C2=O.O=C(O)C(F)(F)F [Example 5, 1-[3-(L-Leucyl-glycyl-L-leucyl-L-prolylamino)propylamino]-anthraquinone trifluoroacetate] (H-LGLP-{NH(CH2)3NH(1-anthraquinonyl)})	144	89	100	0	30	No inhibition of relaxation between 1-100 μM	
CC(C)C[C@H](NC(=O)CN)C(=O)N1CCC[C@H]1C(=O)NCCCNc1cccc2c1C(=O)c1ccccc1C2=O.O=C(O)C(F)(F)F [Example 4, 1-[3-(Glycyl-L-leucyl-L-prolylamino)propylamino]anthraquinone trifluoroacetate]	144 to 148	91	55	0	13	Partial inhibition of relaxation at 50 μM	
